In PubChem BioAssay (NCI):
“And” between values parts separate entries of the source, which are not always exact repeats. Equal entries are not always repeated.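 These data come from cells grown in 96-well plates and exposed to compound for 48 hours at five concentrations. GI50 is the concentration that inhibits growth by half. The concentration for full growth arrest is given as TGI.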

Experiments:
Assay in all cases: NCI tumour cell line growth inhibition, 48 h
[1] = test system: 786-0 renal
[2] = test system: ACHN renal
[3] = test system: BT-549 breast
[4] = test system: CAKI-1 renal
[5] = test system: DMS 114 small cell lung
[6] = test system: DU-145 prostate
[7] = test system: HCT-116 colon
[8] = test system: HOP-18 NSCLC
[9] = test system: M14 melanoma
[10] = test system: MALME-3M melanoma
[11] = test system: MDA-MB-231 breast
[12] = test system: MDA-MB-435
[13] = test system: MDA-N
[14] = test system: MOLT-4 leukemia
[15] = test system: NCI-H226 lung
[16] = test system: NCI-H23 lung
[17] = test system: P388 leukemia
[18] = test system: P388/ADR leukemia
[19] = test system: PC-3 prostate
[20] = test system: SF-539 CNS
[21] = test system: SNB-19 CNS
[22] = test system: SR leukemia
[23] = test system: T-47D breast
[24] = test system: TK-10 renal
[25] = test system: UO-31 renal
[26] = test system: A498 renal
[27] = test system: A549 NSCLC
[28] = test system: DLD-1 colon
[29] = test system: EKVX NSCLC
[30] = test system: HOP-92 NSCLC
[31] = test system: HS 578T breast
[32] = test system: KM20L2 colon
[33] = test system: MCF7 breast
[34] = test system: NCI-H522 lung
[35] = test system: OVCAR-4 ovarian
[36] = test system: OVCAR-5 ovarian
[37] = test system: SF-268 CNS
[38] = test system: SK-MEL-2 melanoma
[39] = test system: SK-MEL-28 melanoma
[40] = test system: SN12C renal
[41] = test system: SNB-78 CNS
[42] = test system: SW-620 colon
[43] = test system: CCRF-CEM leukemia
[44] = test system: COLO 205 colon
[45] = test system: DMS 273 small cell lung
[46] = test system: HCC-2998 colon
[47] = test system: HCT-15 colon
[48] = test system: HL-60(TB) leukemia
[49] = test system: HOP-62 NSCLC
[50] = test system: HT29 colon
[51] = test system: IGROV1 ovarian
[52] = test system: K-562 leukemia
[53] = test system: KM12 colon
[54] = test system: LOX IMVI melanoma
[55] = test system: M19-MEL melanoma
[56] = test system: NCI-H460 lung
[57] = test system: NCI/ADR-RES ovarian
[58] = test system: OVCAR-3 ovarian
[59] = test system: OVCAR-8 ovarian
[60] = test system: RXF 393 renal
[61] = test system: SF-295 CNS
[62] = test system: SK-MEL-5 melanoma
[63] = test system: SK-OV-3 ovarian
[64] = test system: SN12K1 renal
[65] = test system: SNB-75 CNS
[66] = test system: U251 CNS
[67] = test system: UACC-257 melanoma
[68] = test system: UACC-62 melanoma
[69] = test system: XF 498 CNS

C[C@@H]1O[C@@H](O[C@H]2CC[C@]3(C=O)[C@H]4CC[C@]5(C)[C@@H](c6ccc(=O)oc6)CC[C@]5(O)[C@@H]4CC[C@]3(O)C2)[C@H](O)[C@H](O)[C@H]1O[C@@H]1O[C@H](CO)[C@@H](O)[C@H](O)[C@H]1O
TGI [1]: 16.4 nM and 17.4 nM | TGI [2]: 19.5 nM and 23.3 nM | GI50 [3]: 25.2 nM | TGI [3]: 28.5 nM and 70.1 nM | GI50 [4]: 37.5 nM | TGI [4]: 32.2 nM and 25.1 nM and 37.9 nM | GI50 [5]: < 0.000375 nM | GI50 [6]: 12.9 nM | TGI [6]: 8.37 nM and 42.4 nM | TGI [7]: 35.8 nM and 19.4 nM | TGI [8]: 21.9 nM | GI50 [9]: 30.4 nM | TGI [9]: 48.3 nM and 125 nM | GI50 [10]: 14.2 nM and 20.6 nM | TGI [10]: 34.3 nM and 47.7 nM | TGI [11]: 129 nM | GI50 [12]: 26.1 nM | TGI [12]: 34.4 nM and 62 nM | GI50 [13]: 17.3 nM | TGI [13]: 59.5 nM and 33.3 nM | TGI [14]: 14.4 nM and 70.8 nM | GI50 [15]: 40.9 nM | TGI [15]: 57.6 nM and 43.7 nM and 93.3 nM | GI50 [16]: < 0.000375 nM | TGI [17]: 176000 nM | TGI [18]: 355000 nM | GI50 [19]: 17.8 nM | TGI [19]: 28.5 nM and 33.6 nM | TGI [20]: 21 nM and 24.5 nM | GI50 [21]: 30.1 nM and 37.5 nM | TGI [21]: 141 nM and 118 nM and 64.3 nM | TGI [22]: 868 nM | GI50 [23]: 24 nM | TGI [23]: 46.5 nM and 56.4 nM | GI50 [24]: 13.2 nM | TGI [24]: 16 nM and 56.9 nM | GI50 [25]: 37.5 nM | TGI [25]: 51.2 nM and 47.9 nM

C=C1CC2CC[C@@]34CC5O[C@@H]6C(O[C@H]7CC[C@H](CC(=O)OC8C(C)C9OC%10C[C@]%11(C[C@@H]%12O[C@]%13(CC(C)[C@@H]%14O[C@H](C(O)CC(O)CO)C[C@@H]%14O%13)CC(C)[C@@H]%12O%11)OC%10CC9O[C@H]8C[C@H]8OC(CC[C@@H]1O2)C[C@@H](C)C8=C)OC7[C@@H]6O3)[C@H]5O4 (stereo not given in full)
TGI [1]: 1220 nM | TGI [26]: 32.1 nM and 6.79 nM | TGI [27]: 2550 nM and 1650 nM | TGI [2]: 1280 nM | TGI [3]: 2690 nM | TGI [4]: 464 nM and 1540 nM | GI50 [28]: 0.255 nM | TGI [28]: 2550 nM | GI50 [5]: 0.255 nM | TGI [5]: 5.54 nM and 8.56 nM | TGI [29]: 2850 nM | GI50 [30]: 15.6 nM and 6.03 nM | GI50 [31]: 0.182 nM | TGI [32]: 1.67 nM | TGI [33]: 2550 nM and 21400 nM | GI50 [11]: 2.67 nM | TGI [12]: 0.511 nM | GI50 [13]: 0.0269 nM and 0.151 nM | TGI [13]: 0.756 nM and 2.65 nM | TGI [15]: 7.09 nM and 7.25 nM and 21.7 nM | TGI [34]: 0.7 nM and 0.489 nM and 0.304 nM | TGI [35]: 838 nM and 2420 nM | TGI [36]: 7.64 nM | TGI [18]: 8.46 nM | GI50 [19]: 0.886 nM | TGI [37]: 2550 nM and 1470 nM | TGI [20]: 4.2 nM and 3.72 nM and 1.3 nM | TGI [38]: 9.31 nM and 4.34 nM | GI50 [39]: 1.01 nM | TGI [40]: 2550 nM and 6410 nM | TGI [21]: 1820 nM | GI50 [41]: 0.255 nM | TGI [41]: 2550 nM | GI50 [22]: 0.0153 nM | TGI [42]: 2550 nM | TGI [23]: 5320 nM | TGI [24]: 16800 nM | TGI [25]: 2460 nM

COc1ccc2c(c1)OCCc1cn[nH]c1-2
TGI [26]: 86100 nM | TGI [27]: > 100000 nM | TGI [43]: > 100000 nM | TGI [44]: > 100000 nM | TGI [28]: > 100000 nM | TGI [5]: > 100000 nM | TGI [45]: > 100000 nM | TGI [29]: 12300 nM | TGI [46]: > 100000 nM | TGI [7]: > 100000 nM | TGI [47]: > 100000 nM | TGI [48]: 36000 nM | TGI [8]: > 100000 nM | TGI [49]: > 100000 nM | TGI [30]: 61600 nM | TGI [50]: > 100000 nM | TGI [51]: 56100 nM | TGI [52]: > 100000 nM | TGI [53]: > 100000 nM | TGI [32]: > 100000 nM | TGI [54]: > 100000 nM | TGI [55]: > 100000 nM | TGI [10]: > 100000 nM | TGI [33]: > 100000 nM | TGI [14]: 70400 nM | TGI [16]: > 100000 nM | TGI [56]: > 100000 nM | TGI [34]: > 100000 nM | TGI [57]: > 100000 nM | TGI [58]: > 100000 nM | TGI [35]: > 100000 nM | TGI [36]: > 100000 nM | TGI [59]: > 100000 nM | TGI [17]: > 100000 nM | TGI [18]: > 100000 nM | TGI [60]: > 100000 nM | TGI [37]: > 100000 nM | TGI [61]: > 100000 nM | TGI [20]: > 100000 nM | TGI [38]: > 100000 nM | TGI [39]: > 100000 nM | TGI [62]: > 100000 nM | TGI [63]: > 100000 nM | TGI [40]: > 100000 nM | TGI [64]: > 100000 nM | TGI [21]: > 100000 nM | TGI [65]: > 100000 nM | TGI [41]: > 100000 nM | TGI [42]: > 100000 nM | TGI [66]: > 100000 nM | TGI [67]: > 100000 nM | TGI [68]: 84300 nM | TGI [25]: > 100000 nM | TGI [69]: 73600 nM
